Results published in patent publication USH1427H, “Substituted flavonoid compounds, their salts, their manufacture and their use in combination with interleukin-2” (priority 1992, dated 1995).

What was measured:
YAC-1 tumor target = assay: Augmentation of NK activity, 4-hr 51Cr release assay with effector leukocytes from treated animals; format: in vivo, mice; details: Table 1
Source text: The immunomodulatory activity of boosting NK activity is readily determined in accordance with the protocol outlined by Wiltrout et al. in J. Exp. Med. (1984), vol. 160, p. 1431-1449, which is hereby incorporated by reference. Using this protocol, the flavonoid compounds of the present invention must be capable of boosting NK activity at least 2-fold, preferably at least 3-fold, and most preferably at least 4-fold, as measured in lytic units. (See "In Vitro Methods in Cell Mediated and Tumor Immunity", eds. Barry R. Bloom and John R. David, pub. Academic Press (1976), p. 427, for the definition of lytic units.)
Assessment of NK activity. […] Effector leukocytes were isolated from spleen, peritoneal cavity, lungs, and liver as previously described (J. Exp. Med., vol. 160, 1431 (1984) and J. Immunol., vol. 135, 1477 (1985)). NK activity was expressed as either [formula] or LU/1×10^7 cells, with one LU being the number of effector cells required to lyse 20% or 40% of the target cells. Statistical comparisons in NK activity were performed by the student's t-test.
Peak levels of NK-mediated lysis were generally achieved by 24 hour post injection, with levels of NK activity decreasing to background by about day 6.

[1] = test system: Renca renal adenocarcinoma; assay: Survival of Renca-bearing mice treated with flavonoid and/or rIL-2; format: in vivo, BALB/C mice; details: Table 1, flavonoid plus rIL-2
Method: Tumor model. The model used for these studies is the Renca renal adenocarcinoma, a tumor that originated spontaneously and is maintained by serial transplant in BALB/C mice (JNCI, vol. 50, 1013 (1973)). […] After injection of 1×10^5 tumor cells under the renal capsule, the solid tumor mass develops rapidly with direct extension to the peritoneal cavity by days 7 to 9 and metastasis to regional lymph nodes and the liver shortly thereafter. […] Flavonoid was administered by injection of 125 mg/kg i.v. and 125 mg/kg i.p., whereas various doses of rIL-2 were delivered by the i.p. route. Routinely, flavonoid was administered 2 to 4 h after nephrectomy of the primary tumor-bearing kidney on day 11, and rIL-2 was administered once per day for 4 successive days beginning on the day after nephrectomy and FAA treatment. Statistical analysis of survival data was performed by the .chi.^2 test.
The flavonoid compound was administered by injection of e.g. 125 mg/kg i.v. and e.g. 125 mg/kg i.p., whereas various doses of rIL-2 were delivered by the i.p. route. Routinely, flavonoid compound was administered 2 to 4 hours after nephrectomy of the primary tumor-bearing kidney on day 11 and rIL-2 was administered once per day for 4 successive days beginning on the day after nephrectomy and flavonoid treatment. Statistical analysis of survival data was performed by the .chi.^2 test.
BALB/C mice (e.g. 10/group) were injected i.v. with 1×10^5 Renca tumor cells on day 0. On day 11 the tumor-bearing kidney was removed and 2 to 4 h later flavonoid (125 mg/kg i.v.+125 mg/kg i.p.) was administered to appropriate groups. Subsequently, beginning on day 12, some of the flavonoid pretreated mice and two groups of previously untreated mice received four daily i.p. injections of rIL-2 at doses of 30,000 U/day. Mice were then monitored for survival and statistical analyses performed by the .chi.^2 test.

serum IFN = format: in vivo; details: Table 1
[2] = Preliminary preclinical therapeutic synergy between coumarin and rIL2; format: in vivo; details: preliminary preclinical experiments
Source text: In another publication, Wiltrout et al., J. Natl. Cancer Inst.

[3] = test system: metastatic renal cell cancer; details: clinical trial, selected patients; Marshal et al.; cited from earlier work
[4] = test system: Renca murine renal cancer; details: combined doxorubicin and adoptive immunotherapy with rIL-2; cited from earlier work
[5] = test system: established murine renal cancer; details: established murine renal cancer in BALB/c mice; cited from earlier work
natural killer activity [6] = details: preliminary studies, Wiltrout et al.; cited from earlier work
natural killer activity [7] = details: cited from earlier work
Lewis lung carcinoma = details: cited from earlier work
interferon = details: preliminary studies, Wiltrout et al.; cited from earlier work

## O=C(O)Cc1cccc2c(=O)cc(-c3ccco3)oc12 [LM2888]
YAC-1 tumor target
  NK: +
[1]
  Synergistic Therapy With IL-2: I
Serum IFN
  IFN: I

## COc1cccc(-c2cc(=O)c3cccc(CC(=O)O)c3o2)c1 [LM2889]
YAC-1 tumor target
  NK: +
[1]
  Synergistic Therapy With IL-2: +
Serum IFN
  IFN: +

## C=C(C(=O)O)c1cccc2c(=O)cc(-c3ccccc3)oc12 [LM2891]
YAC-1 tumor target
  NK: +
[1]
  Synergistic Therapy With IL-2: +
Serum IFN
  IFN: +

## O=c1ccc2ccccc2o1 [coumarin]
[2]
  therapeutic synergy between coumarin and rIL2: no therapeutic synergy was observed
[3]
  anti-tumor activity in patients with metastatic renal cell cancer: demonstrated anti-tumor activity

## COc1cccc2c1C(=O)c1c(O)c3c(c(O)c1C2=O)C[C@@](O)(C(=O)CO)C[C@@H]3O[C@H]1C[C@H](N)[C@H](O)[C@H](C)O1 [doxorubicin]
[4]
  treatment of Renca murine renal cancer: successfully treated

## O=C(O)Cc1cccc2c(=O)cc(-c3ccccc3)oc12 [flavone-8-acetic acid]
[5]
  anti-tumor effects, combination of flavone-8-acetic acid plus interleukin-2: synergistic anti-tumor effects
Natural killer activity [6]
  augmentation of natural killer activity in vitro: failed to detect
Natural killer activity [7]; combination with rIL-2, normal and tumor-bearing mice, Wiltrout et al.
  natural killer activity, flavone-8-acetic acid plus rIL-2: synergistically augmented natural killer activity
Natural killer activity [7]; liver, lungs, spleen, Wiltrout et al.
  natural killer activity in nonlymphoid organs (liver and lungs) as well as in the spleen: could augment natural killer activity in nonlymphoid organs (liver and lungs) as well as in the spleen
Natural killer activity [7]; spleen, Ching et al.
  splenic natural killer activity: augments splenic natural killer activity
Lewis lung carcinoma; administered ip, diffusion chambers, Finlay et al.
  susceptibility of Lewis lung carcinoma cells implanted in diffusion chambers in the peritoneum: not susceptible
Lewis lung carcinoma; in vivo, mice, Finlay et al.
  anti-tumor effects against Lewis lung carcinoma: pronounced anti-tumor effects
Lewis lung carcinoma; mouse, in vivo
  tumoricidal activity in vivo compared with direct cytotoxic effects in vitro: more pronounced and occurs more rapidly in vivo than direct cytotoxic effects observed in vitro
interferon
  induction of interferon in vitro: failed to detect induction of interferon
